Experimental data from patent publication US20060166996A1, “Phthalazine derivatives as phosphodiesterase 4 inhibitors” (Zambon Group S.P.A., priority 2002, published 2006).
≈ marks a conversion by molar mass, not a printed value. Like-named read-outs stand apart in the source and are kept apart here.

Tests used:
[1] = Solubility test by HPLC in PBS pH 7.4; type: physicochemical; settings: PBS pH 7.4, HPLC against standard, compounds of formula I; for solubility kinetic: PBS (phosphate buffer saline), aqueous buffer, kinetic from dmso stock
Method: HPLC method used to test the solubility.
Solubility test was performed by HPLC analysis (column 4.6×15 mm) water/0.1% TFA —CH3CN/0.06% TFA gradient) against standard.
A […] solution of the substance dissolved in DMSO was prepared.
In order to prepare the sample 190 μl of PBS (Phosphate Buffer Saline, pH 7.4) were added to 10 μl of the above solution; instead (while) in order to prepare the standard 190 μl of DMSO to other 10 μl of solution were added.

PDE 2 = molecular target: T1, PDE 2 (Rattus norvegicus, UniProt Q01062); assay: PDE 2 enzyme inhibition (SPA); type: biochemical; settings: PDE 2 from murine PC12 cells; read-out: PDE 2 IC 50
T1 construct: Fractions containing PDE 2 enzyme activity were pooled; endogenous in cells; host or cells: PC12 cells (Istituto Zooprofilattico Brescia)
T1 sequence (Q01062 1-928): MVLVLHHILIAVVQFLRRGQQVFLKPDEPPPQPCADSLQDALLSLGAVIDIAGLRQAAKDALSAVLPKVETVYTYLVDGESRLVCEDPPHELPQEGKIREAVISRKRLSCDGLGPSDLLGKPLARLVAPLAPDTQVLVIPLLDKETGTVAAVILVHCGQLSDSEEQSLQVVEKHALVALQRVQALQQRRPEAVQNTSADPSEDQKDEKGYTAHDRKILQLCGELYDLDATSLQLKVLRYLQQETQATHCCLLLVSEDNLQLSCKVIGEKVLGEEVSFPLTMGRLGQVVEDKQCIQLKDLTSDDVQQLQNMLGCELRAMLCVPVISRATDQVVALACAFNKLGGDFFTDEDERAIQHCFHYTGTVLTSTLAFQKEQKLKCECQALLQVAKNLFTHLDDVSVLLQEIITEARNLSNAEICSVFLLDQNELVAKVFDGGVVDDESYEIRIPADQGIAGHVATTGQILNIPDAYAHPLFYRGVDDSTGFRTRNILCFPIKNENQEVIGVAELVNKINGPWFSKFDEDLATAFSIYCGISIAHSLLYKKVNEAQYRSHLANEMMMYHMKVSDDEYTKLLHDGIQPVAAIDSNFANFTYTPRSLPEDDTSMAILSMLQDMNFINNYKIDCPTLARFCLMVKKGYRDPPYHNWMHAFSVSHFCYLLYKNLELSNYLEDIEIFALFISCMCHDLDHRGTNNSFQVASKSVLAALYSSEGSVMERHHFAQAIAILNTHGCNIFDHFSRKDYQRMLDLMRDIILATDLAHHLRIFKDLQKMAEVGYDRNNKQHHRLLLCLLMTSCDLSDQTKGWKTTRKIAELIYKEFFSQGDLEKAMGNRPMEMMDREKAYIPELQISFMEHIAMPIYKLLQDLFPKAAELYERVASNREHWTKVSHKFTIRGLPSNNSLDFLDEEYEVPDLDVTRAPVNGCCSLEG
Method: PDE 2 was purified from murine PC12 cells according to Whalin et al. (Molecular Pharmacol. 1991, 39, 711-717).
PC12 cells from Istituto Zooprofilattico Brescia (Italy) were maintained in […] flasks at 37° C. and 5% CO2 in DMEM containing 5% FCS, 15% horse serum, 1% penicillin, 1% streptomycin and 1% glutamine.
The cells were expanded paying attention to split them only at reached confluency.
After washing the cells were detached with 0.05% trypsin/0.02%EDTA and collected in a clean test tube.
After centrifugation, the cells were suspended in buffer containing Bis-Tris 20 mM, EDTA 2 mM, 2-mercaptoethanol 5 mM, leupeptin 1 μM, pepstatin A 1 μM, PMSF 100 μM, pH 6.5, and homogenised using a Polytron homogeniser.
After centrifugation, the supernatant fraction was applied to a UNO Q-12 column connected to a Biologic Chromatography system (FPLC, BIO RAD).
PDE 2 enzyme was eluted with a linear 0.05-1M sodium acetate gradient and elution fractions were collected for PDE 2 enzyme activity assay.
Fractions containing PDE 2 enzyme activity were pooled, dialysed overnight against distilled water and concentrated 10 times by an Amicon filtration system (using YM10 membrane filter).
Ethylene glycol was added to a final concentration of 30% v/v and the solution stored at −20° C.
Enzymatic activity was stable for several weeks under these conditions.
PDE 2 activity assay was performed using Scintillation Proximity Assay (SPA) Amersham kit consisting of tracer ^3H-cAMP, PDE assay buffer (10×solution: 500 mM TRIS/HCl pH 7.5, 83 mM MgCl2 and 17 mM EGTA) and Yttrium SPA PDE beads (containing 18 mM zinc sulphate).
The radioactivity of the beads was measured using a scintillation counter (Packard model MINAXI β TRI-CARB 4000 SERIES).

TNFα release = TNFα release in whole human blood (LPS, ELISA); type: cell-based
Method: The blood samples obtained from healthy volunteers were collected in heparinised tubes and diluted 1:5 with RPMI 1640 without serum addition.
The test was carried out in 96-well plates and samples containing 150 μl of diluted blood and 150 μl of RPMI 1640 with control vehicle or with different concentration of the compounds of the present invention were incubated at 37° C. in a 5% CO2 humidified atmosphere for 30 minutes.
The whole blood in the assay samples was diluted 1:10 (v/v).
The samples were stimulated with LPS (lipopolysaccharide from E. Coli: serotype B 0:55, Sigma) 0.25 μg/ml and incubated for 24 hours.
After centrifugation, the supernatants were collected for TNFα levels determination by a commercially available ELISA kit (Biosource).
The test objects were dissolved in DMSO at 10^−2 M and further diluted in RPMI 1640. […] Each compound was tested in duplicate at nine concentrations and the data obtained were further confirmed using blood samples from different donors.
The percent inhibition of TNFα production at each concentration was calculated and IC50 was determined using a 4-parameters logistic equation (Origin calculation program, Microcal Software Inc.)

[2] = h-WB (whole human blood), LPS stimulated, read-out: IC 50 (nM) h-WB
[3] = whole human blood diluted 1:10, LPS 0.25 μg/ml, 24 hours, read-out: IC 50 (nM) h-WB 1:10

Row | solubility kinetic [1] [µg/mL] | Sol. [1] [µM] | IC50 (PDE 2) [µM] | IC50 (TNFα release; [2]) [nM] | IC50 (TNFα release; [3]) [nM] | Compound
1 | 216 (≈ 491 µM) | 482.14 | > 10 | 33000 | 2470 | COc1ccc2c(Cc3c(Cl)cncc3Cl)nnc(-c3cccc(C(=O)O)c3)c2c1 [Compound 2, 3-[4-(3,5-dichloro-pyridin-4-ylmethyl)-7-methoxy-phthalazin-1-yl]-benzoic Acid]
2 | 470 (≈ 987 µM) | 987.39 | > 10 | 14300 | 1230 | O=C(O)c1cccc(-c2nnc(Cc3c(Cl)cncc3Cl)c3ccc(OC(F)F)cc23)c1 [Compound 8, 3-[4-(3,5-dichloro-pyridin-4-ylmethyl)-7-difluoromethoxy-phthalazin-1-yl]-benzoic Acid]
3 | 253 (≈ 567 µM) | 567.26 | > 10 | – | 18000 | COc1ccc2c(Cc3c(Cl)cncc3Cl)nnc(-c3sccc3C(=O)O)c2c1 [Compound 10, 2-[4-(3,5-dichloro-pyridin-4-ylmethyl)-7-methoxy-phthalazin-1-yl]-thiophene-3-carboxylic Acid]
